According to article PMC12458691 (Inorganic Chemistry, 2025):
Like-named read-outs stand apart in the source and are kept apart here.

How the values were obtained:
[1] = parameters: method as in footnotes c–f, numbers not given; settings: Cu2+ complexes/salt/enzyme, literature data for comparison; ref footnotes c–f, numbers not given; cited from earlier work
[2] = Catalase activity by pressure monitoring of evolved O2; format: biochemical; settings: 25°C, pH 7.5
Procedure: The quantification of the evolved oxygen is frequently used to evaluate the catalase activity. − In this work, the amount of gas evolved during the reaction of the Fe^2+–^ COOH PyNMe 3 complex with hydrogen peroxide was monitored by measuring the pressure changes over time using a previously calibrated Man on the Moon X104 gas evolution kit. For that purpose, 2.5 mL of an aqueous solution of the complex at concentrations of (0.5–2.7) × 10^–4 M buffered at pH 7.5 with TRIS (50 mM) was prepared inside a glovebox, placed in a closed reaction vessel, and purged with nitrogen. Once the pressure readings were stabilized, 0.2–1.2 mL of a 0.12 M aqueous solution of H2O2 (also prepared in TRIS 50 mM at pH 7.4) was added, and the pressure was then measured as a function of time. A blank experiment was conducted with a complex-free solution of a 50 mM TRIS solution with hydrogen peroxide at pH 7.4, where no O2 evolution was detected. The same result was obtained for blank experiments, including also the ligand but not the metal ion or the free metal ion (i.e., Fe^2+, Fe^3+, or Cu^2+) in the absence of the ligand (see Entries 8–12 in Table ). […] Nevertheless, the possible formation of small amounts of CO2, which would introduce a small error in the estimation of evolved O2, cannot be completely ruled out.

[3] = 0.15 M NaClO4, 298.1 K; ref footnote c, number not printed; cited from earlier work
[4] = 0.15 M NaClO4, 298.1 K, ref footnote c, number not printed, cited from earlier work
[5] = Stability constants and speciation of Cu2+ complexes by potentiometric measurements; format: physicochemical; settings: for pCu: calculated for theoretical solutions
Procedure: (§1) Caution! Perchlorate salts are explosive and should be handled with care; such compounds should never be heated as solids. The potentiometric titrations were carried out at 298.1 ± 0.1 K using 0.15 M NaClO4 as the supporting electrolyte. The experimental procedure (buret, potentiometer, cell, stirrer, microcomputer, etc.) has been fully described elsewhere. The acquisition of raw potentiometric data was performed with the computer program PASAT. The reference electrode was a Ag/AgCl electrode in a saturated KCl solution. The glass electrode was calibrated as a hydrogen-ion concentration probe by titration of previously standardized amounts of HCl with CO2-free NaOH solutions, and the equivalent point was determined by Gran’s method, , which gives the standard potential, E̊, and the ionic product of water (pK w = 13.73(1)). The computer program […] was used to calculate the protonation and stability constants. The HYSS program was used to obtain the distribution diagrams. The pH range investigated by using this technique was 2.5–11.0, in accordance with the linear response range of glass electrodes. The solutions were extensively deaerated with an argon flow before the potentiometric runs. A moderate argon flow was maintained throughout the course of the titrations. The different titration curves for each system (at least two) were treated either as a single set or as separate curves without significant variations in the values of the stability constants. Finally, the sets of data were merged and treated simultaneously to give the final stability constants.

[6] = McCord–Fridovich nitroblue tetrazolium (NBT) SOD activity assay; format: biochemical; settings: for SOD activity of the Fe2+ complexes (in words): NBT method, under the conditions of this study; for increase in the SOD catalytic constant of the Cu2+ complex on functionalization of the pyridine: relative to Cu2+ complexes of HPyNH3 or HPyNMe3
Source text: First, the SOD activity of the complexes was studied by means of the nitroblue tetrazolium (NBT) method, also known as McCord–Fridovich method. This is a widely used, indirect method based on the side production of superoxide anions by the xanthine oxidase enzyme and their capture by the NBT dye to give formazan. − A compound displaying SOD activity decreases the flow of superoxide radical anions and, thereby, the production of formazan (see the representation of the fitting of the data in Figures and S13–S16). Thus, by following the absorption band of formazan at 560 nm, the SOD activity of the studied mimetic can be quantified. Blank experiments were recorded with the ligands alone without observing any effect. The values of IC50, defined as the amount of the compound necessary for achieving 50% inhibition of NBT reduction to formazan by the superoxide anion, together with the catalytic constants (k cat), were obtained as indicated in the Experimental Section and are summarized in Table .
The SOD-like activity was determined by using the nitroblue tetrazolium (NBT) method, which despite its limitations is frequently used to estimate the activity of SOD mimetics. − The assays were carried out in a pH = 7.4 50 mM HEPES buffer at 298 K. The xanthine (2.2 × 10^–4 M) and xanthine oxidase (ca. 3 UN) system was used to generate a reproducible and constant flux of superoxide anions. […] Data in the absence of the complex were used as a reference. […] The percentage of inhibition of the NBT reduction to formazan was used as a measure of the SOD activity of the compounds. The concentration of the complex required to yield 50% inhibition of NBT reduction (IC50) was determined from a plot of percentage inhibition versus complex concentration. The IC50 data were calculated from the mean values of (at least) three independent measurements. The catalytic constant was calculated from the IC50 using the equation k cat = k NBT[NBT]/IC50 where k NBT = (5.94 ± 0.5) × 10^4 M^–1 s^–1. −

[7] = Stability constants and speciation of Fe2+ complexes by potentiometric measurements; format: physicochemical; settings: for pFe: calculated for theoretical solutions
Procedure: as §1

[8] = Protonation constants by potentiometric and UV–vis titrations; format: physicochemical
Procedure: as §1
The solvents used were of spectroscopic or equivalent grade. Water was twice distilled and passed through a Millipore apparatus. The pH values were measured with a Metrohm 713 pH meter, and adjustments of the hydrogen-ion concentration of the solutions were made with diluted HCl and NaOH solutions. UV–vis absorption spectra were recorded between pH 2 and 11 with an Agilent 8453 spectrometer. The resulting data from the titrations were used to calculate the third protonation constant of ^ COOMe PyNMe 3 . For this, the HypSpec program was employed, considering all of the absorbance intensities in the range of 250 and 350 nm.

[9] = entry 10: no ligand, [Cu2+]0 2.7 × 10^–4 M as Cu(ClO4)2, [H2O2]0 4.3 × 10^–2 M
[10] = entry 8: no ligand, [Fe2+]0 2.14 × 10^–4 M as Fe(SO4), [H2O2]0 3.4 × 10^–2 M
[11] = entry 9: no ligand, 2.14 × 10^–4 M FeCl3, [H2O2]0 3.4 × 10^–2 M
[12] = entry 12: ligand alone 2.14 × 10^–4, no metal ion, [H2O2]0 3.4 × 10^–2 M
[13] = 0.15 M NaClO4, 298.1 K, potentiometry

SMILES: [Cu+2].[O-][Cl+3]([O-])([O-])[O-].[O-][Cl+3]([O-])([O-])[O-] [Cu(ClO4)2]
- k cat (SOD catalytic constant) [1]: 2.7 10^6 M^–1 s^–1
- TON (moles of H2O2 decomposed by one mol of metal ions) [2, 9]: 0
- nO2(g) [2, 9]: 0 mol

SMILES: O=S(=O)([O-])[O-].[Fe+2] [Fe(SO4)]
- TON (moles of H2O2 decomposed by one mol of metal ions) [2, 10]: 0
- nO2(g) [2, 10]: 0 mol

SMILES: [Cl][Fe]([Cl])[Cl] [FeCl3]
- TON (moles of H2O2 decomposed by one mol of metal ions) [2, 11]: 0
- nO2(g) [2, 11]: 0 mol

SMILES: O=C(O)c1cc2nc(c1)CNCCNCCNC2 [^ COOH PyNH 3]
- log K, H2L^(2+x)++H^+⇄H3L^(3+x)+ (stepwise protonation constant) [3]: 2.25(2)
- log K, HL^(1+x)++H^+⇄H2L^(2+x)+ (stepwise protonation constant) [3]: 7.90(1)
- log K, L^x+H^+⇄HL^(1+x)+ (stepwise protonation constant) [3]: 10.80(1) ^d
- log β (∑log K, protonation) [3]: 20.95
- k cat (SOD catalytic constant) [1]: 9.7 10^6 M^–1 s^–1
- log K, Cu+L⇄[CuL] (stability constant) [4]: 17.62(2) ^c, ^d
- log K, [CuL]+H2O⇄[CuL(OH)]+H [4]: –9.07(2) ^c
- log K, Cu+L⇄[CuL] (stability constant) ([4]; listed as COOHPyNH3): 17.62
- pCu ([5]; pH 7.4, [L]=[M]=1 µM): 9.80
- pCu ([5]; pH 7.4, [L]=[M]=10 µM): 9.30
- SOD activity of the Fe2+ complexes (in words) [6]: negligible SOD activity
- increase in the SOD catalytic constant of the Cu2+ complex on functionalization of the pyridine [6]: 6- to 10 fold

SMILES: CN1CCN(C)Cc2cc(C(=O)O)cc(n2)CN(C)CC1 [^ COOH PyNMe 3]
- log K, Cu+L⇄[CuL] (stability constant) ([5]; 0.15 M NaClO4, 298.1 K): 16.35(4)
- log K, [CuL]+H2O⇄[CuL(OH)]+H ([5]; 0.15 M NaClO4, 298.1 K): –9.24(7)
- log K, Cu+L⇄[CuL] (stability constant) ([5]; 0.15 M NaClO4, 298.1 K, listed as COOHPyNMe3): 16.35
- pCu ([5]; pH 7.4, [L]=[M]=1 µM): 9.18
- pCu ([5]; pH 7.4, [L]=[M]=10 µM): 8.68
- log K, Fe+L⇄[FeL] (stability constant) ([7]; 0.15 M NaClO4, 298.1 K): 10.02(2)
- log K, [FeL]+H2O⇄[FeL(OH)]+H ([7]; 0.15 M NaClO4, 298.1 K): –9.44(4)
- pFe ([7]; pH 7.4, [L]=[M]=1 µM): 6.22
- pFe ([7]; pH 7.4, [L]=[M]=10 µM): 5.58
- free Fe2+ ([7]; pH 7.5, [COOHPyNMe3]=[Fe2+]=50 µM, 0.15 M NaClO4 (Figure S19)): 10.9%
- free Fe2+ ([7]; pH 7.5, [COOHPyNMe3]=[Fe2+]=270 µM, 0.15 M NaClO4 (Figure S18)): 4.8%
- SOD activity of the Fe2+ complexes (in words) [6]: negligible SOD activity
- k cat (SOD catalytic constant) ([6]; metal complexes, calculated from IC50 as kNBT[NBT]/IC50, pH 7.4, [NBT] = 59 μM): 12.3 10^6 M^–1 s^–1
- increase in the SOD catalytic constant of the Cu2+ complex on functionalization of the pyridine [6]: 6- to 10 fold
- TON (moles of H2O2 decomposed by one mol of metal ions) [2, 12]: 0
- nO2(g) [2, 12]: 0 mol
- log β (∑log K, protonation) ([8]; 0.15 M NaClO4, 298.1 K): 21.53
- log K, H2L^(2+x)++H^+⇄H3L^(3+x)+ (stepwise protonation constant) [8, 13]: 2.90(4)
- log K, HL^(1+x)++H^+⇄H2L^(2+x)+ (stepwise protonation constant) [8, 13]: 7.73(3)
- log K, L^x+H^+⇄HL^(1+x)+ (stepwise protonation constant) [8, 13]: 10.90(2)
- three protonation constants, span from first to third ([8]; potentiometric titrations (third constant of COOMePyNMe3 by UV)): 10.90 to 2.90 logarithmic units
